Experimental data taken from PubChem BioAssay AID624410 (The Scripps Research Institute Molecular Screening Center, 2012).
Calls of active or inactive are those of the source. No rule for the calls is given here.

biological target: Orexin/Hypocretin receptor type 1 (Homo sapiens) (UniProt O43613); assay: HCRTR1 antagonism measured by time-resolved FRET – cell-based, HTRF, OX1R antagonist probe project, late-stage follow-up (AID 624410); conditions: OX1R-expressing cells, HTRF antagonist assay
Sequence (O43613 whole entry, looked up): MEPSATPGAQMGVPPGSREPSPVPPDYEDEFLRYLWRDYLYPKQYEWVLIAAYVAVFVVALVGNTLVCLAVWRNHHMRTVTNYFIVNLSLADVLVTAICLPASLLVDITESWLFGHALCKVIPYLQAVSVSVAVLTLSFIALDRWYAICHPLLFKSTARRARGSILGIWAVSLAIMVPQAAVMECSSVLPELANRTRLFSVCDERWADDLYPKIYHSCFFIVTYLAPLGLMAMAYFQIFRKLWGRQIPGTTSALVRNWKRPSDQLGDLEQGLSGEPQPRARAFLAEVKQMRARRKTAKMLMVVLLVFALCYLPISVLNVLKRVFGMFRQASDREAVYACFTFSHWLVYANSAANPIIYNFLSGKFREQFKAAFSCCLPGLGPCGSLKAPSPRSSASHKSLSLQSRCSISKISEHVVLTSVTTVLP

SMILES | IC50
Cc1cccc(C=NNC(=O)c2cc3c(s2)-c2ccccc2CC3)c1 | 2.82 µM
CCSC1=C(C#N)C(c2ccccc2Cl)C(C(=O)c2cccs2)C(O)(C(F)(F)F)N1 (stereo not given) | 0.611 µM
O=C(CN1C(=O)/C(=C\c2cccc(Br)c2)Oc2ccccc21)NCC1CCCO1 (stereo not given) | 0.277 µM
CCOc1ccccc1C(=O)Nc1ccc2nc3n(c(=O)c2c1)CCCCC3 | 0.769 µM
Cc1noc(C)c1COc1ccc(C(=O)OCC(=O)N2CC(=O)Nc3ccccc32)cc1 | inactive
Cc1ccc(-c2csc3nnc(SCC(=O)Nc4nsc(-c5ccccc5)n4)n23)cc1 | 3.06 µM
O=c1cc(CN2CC(O)Cc3ccc4ccccc4c32)nc2sccn12 (stereo not given) | inactive
COc1cccc(/C=C2/Oc3ccccc3N(CC(=O)NCC3CCCO3)C2=O)c1 (stereo not given) | 0.468 µM
COCCCNC(=O)CCC(=O)NNc1nc2ccccc2c2nc(-c3ccccc3)nn12 | 6.54 µM
CCN(CC)c1ccc(NC(=O)Cn2c(C(C)NC(=O)c3ccccc3)nc3ccccc32)cc1 (stereo not given) | 0.655 µM
CSc1cccc(N2CC(C(=O)NCCN3C(=O)S/C(=C\c4cccnc4)C3=O)CC2=O)c1 (stereo not given) | 1.9 µM
CCc1cc(C(=O)OCC(=O)N2CCC(c3ccccc3)=N2)sc1C | 2.19 µM
CCOC(=O)N1CCN(C(=O)CSc2ccc(-c3ccccc3)nn2)CC1 | inactive
COc1cc(OC)c(-c2nc3ccccc3s2)cc1OC | 1.9 µM
CCc1cc2c(SCC(=O)N(CC)c3c(N)n(Cc4ccccc4)c(=O)[nH]c3=O)ncnc2s1 | 1.61 µM
Fc1cccc(Nc2nc3ccccc3n3cnnc23)c1 | 3.34 µM
CCn1c(SCC(=O)Nc2ccc3c(c2)c2ccccc2n3CC)nnc1-c1cnccn1 | 0.844 µM
Cc1c(NS(=O)(=O)c2cccc(C(=O)OCC(=O)N(C)C3CCCCC3)c2)c(=O)n(-c2ccccc2)n1C | 0.75 µM
Cc1cccc(NC(=O)[C@@H]2CCCN2S(=O)(=O)c2ccc(Cl)cc2)c1 | 2.03 µM
Cc1cc(Cl)ccc1OCCCC(=O)NCCN1C(=O)S/C(=C\c2cccnc2)C1=O | 0.437 µM
Cc1ccccc1NC(=O)C1CCCN1S(=O)(=O)c1ccccc1C(F)(F)F (stereo not given) | 3.74 µM
CC(=C/c1ccccc1)/C=C1/SC(N2CCOCC2)=NC1=O | 3.02 µM
CSc1cccc(NC(=O)C2CCCN2S(=O)(=O)c2ccc(Br)s2)c1 (stereo not given) | 0.386 µM
COc1ccc(OC)c(S(=O)(=O)NCC(c2ccco2)N2CCc3ccccc32)c1 (stereo not given) | 2.71 µM
O=C(CSc1ccc(-c2ccccc2)nn1)c1cccs1 | 1.96 µM
